Source: ChEMBL document CHEMBL3885861, “Open TG-GATES”

Species: Rattus norvegicus
Experiment: Open TG-GATES - Regimen: Single
Format: toxicity, organism-based, Sprague-Dawley
Parameters: regimen Single, gender Male, age 6 weeks
Conditions: in vivo, po, 0 mg/kg, route gavage, dose level Control; for APTT / Bas / Eos / Fbg / Hb / Ht / Lym / MCH / MCHC / MCV / Mono / Neu / PT / Plat / RBC / Ret: tissue Blood; for KIDNEY_L / KIDNEY_R / KIDNEY_TOTAL: tissue Kidney; for LIVER: tissue Liver; for ALP / ALT / AST / BUN / CRE / Ca / Cl / DBIL / GLC / IP / K / LDH / Na / PL / RALB / TBIL / TC / TG / TP / gamma-GTP: tissue Plasma

SMILES: COc1ccc2[nH]c([S+]([O-])Cc3ncc(C)c(OC)c3C)nc2c1 (stereo not drawn) [OMEPRAZOLE]
- TERMINAL_BW (3 h): 218.5 g
- APTT (3 h): 20.5 s
- Bas (3 h): 0%
- Eos (3 h): 1%
- Fbg (3 h): 206.4 mg/dL
- Hb (3 h): 13 g/dL
- Ht (3 h): 38.5%
- Lym (3 h): 77.8%
- MCH (3 h): 21.4 pg
- MCHC (3 h): 33.9%
- MCV (3 h): 63.1 fL
- Mono (3 h): 2.4%
- Neu (3 h): 18.6%
- PT (3 h): 12.5 s
- Plat (3 h): 122.7 x10_4/uL
- RBC (3 h): 610.2 x10_4/ul
- Ret (3 h): 7.2%
- KIDNEY_L (3 h): 0.9 g
- KIDNEY_R (3 h): 0.9 g
- KIDNEY_TOTAL (3 h): 1.9 g
- LIVER (3 h): 9.9 g
- ALP (3 h): 855.8 IU/L
- ALT (3 h): 33.2 IU/L
- AST (3 h): 68.4 IU/L
- BUN (3 h): 12.6 mg/dL
- CRE (3 h): 0.4 mg/dL
- Ca (3 h): 10.8 mg/dL
- Cl (3 h): 100.6 meq/L
- DBIL (3 h): 0.064 mg/dL
- GLC (3 h): 191.8 mg/dL
- IP (3 h): 8.3 mg/dL
- K (3 h): 3.8 meq/L
- LDH (3 h): 171.2 IU/L
- Na (3 h): 140.4 meq/L
- PL (3 h): 130.8 mg/dL
- RALB (3 h): 3.1 g/dL
- TBIL (3 h): 0.1 mg/dL
- TC (3 h): 69.4 mg/dL
- TG (3 h): 59.4 mg/dL
- TP (3 h): 5.3 g/dL
- gamma-GTP (3 h): 1 IU/L
- TERMINAL_BW (6 h): 218.1 g
- APTT (6 h): 19.3 s
- Bas (6 h): 0%
- Eos (6 h): 0.8%
- Fbg (6 h): 220.4 mg/dL
- Hb (6 h): 13.6 g/dL
- Ht (6 h): 39.7%
- Lym (6 h): 72.4%
- MCH (6 h): 21.4 pg
- MCHC (6 h): 34.1%
- MCV (6 h): 62.7 fL
- Mono (6 h): 3.8%
- Neu (6 h): 22.2%
- PT (6 h): 12.6 s
- Plat (6 h): 123.4 x10_4/uL
- RBC (6 h): 634.2 x10_4/ul
- Ret (6 h): 7.1%
- KIDNEY_L (6 h): 1 g
- KIDNEY_R (6 h): 1 g
- KIDNEY_TOTAL (6 h): 1.9 g
- LIVER (6 h): 9.9 g
- ALP (6 h): 923.8 IU/L
- ALT (6 h): 32.6 IU/L
- AST (6 h): 66 IU/L
- BUN (6 h): 11 mg/dL
- CRE (6 h): 0.3 mg/dL
- Ca (6 h): 10.7 mg/dL
- Cl (6 h): 100.8 meq/L
- DBIL (6 h): 0.07 mg/dL
- GLC (6 h): 201 mg/dL
- IP (6 h): 8.8 mg/dL
- K (6 h): 3.8 meq/L
- LDH (6 h): 181.6 IU/L
- Na (6 h): 140 meq/L
- PL (6 h): 141.4 mg/dL
- RALB (6 h): 3.3 g/dL
- TBIL (6 h): 0.1 mg/dL
- TC (6 h): 73.4 mg/dL
- TG (6 h): 81.2 mg/dL
- TP (6 h): 5.4 g/dL
- gamma-GTP (6 h): 1.8 IU/L
- TERMINAL_BW (9 h): 218.2 g
- APTT (9 h): 20.9 s
- Bas (9 h): 0%
- Eos (9 h): 1%
- Fbg (9 h): 212.8 mg/dL
- Hb (9 h): 13.3 g/dL
- Ht (9 h): 38.6%
- Lym (9 h): 78%
- MCH (9 h): 21.5 pg
- MCHC (9 h): 34.3%
- MCV (9 h): 62.6 fL
- Mono (9 h): 3%
- Neu (9 h): 17.4%
- PT (9 h): 13.1 s
- Plat (9 h): 119.3 x10_4/uL
- RBC (9 h): 615.6 x10_4/ul
- Ret (9 h): 7.4%
- KIDNEY_L (9 h): 0.9 g
- KIDNEY_R (9 h): 1 g
- KIDNEY_TOTAL (9 h): 1.9 g
- LIVER (9 h): 9.1 g
- ALP (9 h): 764.2 IU/L
- ALT (9 h): 28 IU/L
- AST (9 h): 59.2 IU/L
- BUN (9 h): 11.4 mg/dL
- CRE (9 h): 0.3 mg/dL
- Ca (9 h): 10.7 mg/dL
- Cl (9 h): 101 meq/L
- DBIL (9 h): 0.06 mg/dL
- GLC (9 h): 188.4 mg/dL
- IP (9 h): 9.4 mg/dL
- K (9 h): 3.9 meq/L
- LDH (9 h): 175.4 IU/L
- Na (9 h): 140.4 meq/L
- PL (9 h): 122.2 mg/dL
- RALB (9 h): 3.3 g/dL
- TBIL (9 h): 0.1 mg/dL
- TC (9 h): 66.4 mg/dL
- TG (9 h): 54.6 mg/dL
- TP (9 h): 5.5 g/dL
- gamma-GTP (9 h): 1.4 IU/L
- TERMINAL_BW (24 h): 234.9 g
- APTT (24 h): 20.7 s
- Bas (24 h): 0%
- Eos (24 h): 1%
- Fbg (24 h): 229.6 mg/dL
- Hb (24 h): 13.2 g/dL
- Ht (24 h): 38.7%
- Lym (24 h): 78.6%
- MCH (24 h): 21.7 pg
- MCHC (24 h): 34.1%
- MCV (24 h): 63.6 fL
- Mono (24 h): 2.6%
- Neu (24 h): 17.2%
- PT (24 h): 12.1 s
- Plat (24 h): 118.9 x10_4/uL
- RBC (24 h): 608 x10_4/ul
- Ret (24 h): 6.6%
- KIDNEY_L (24 h): 1 g
- KIDNEY_R (24 h): 1 g
- KIDNEY_TOTAL (24 h): 2 g
- LIVER (24 h): 11.8 g
- ALP (24 h): 979.4 IU/L
- ALT (24 h): 35.4 IU/L
- AST (24 h): 62.2 IU/L
- BUN (24 h): 17.4 mg/dL
- CRE (24 h): 0.4 mg/dL
- Ca (24 h): 11.1 mg/dL
- Cl (24 h): 101.2 meq/L
- DBIL (24 h): 0.094 mg/dL
- GLC (24 h): 216 mg/dL
- IP (24 h): 7.7 mg/dL
- K (24 h): 4.2 meq/L
- LDH (24 h): 192 IU/L
- Na (24 h): 140.6 meq/L
- PL (24 h): 151.6 mg/dL
- RALB (24 h): 3.4 g/dL
- TBIL (24 h): 0.1 mg/dL
- TC (24 h): 79.6 mg/dL
- TG (24 h): 109 mg/dL
- TP (24 h): 5.5 g/dL
